The source of these data is patent US20220268782A1, “METHODS FOR PREDICTING AND TREATING CARDIAC DYSFUNCTION” (INSERM (INSTITUT NATIONAL DE LA SANTÉ EAT DE LA RECHERCHE …, priority 2019, published 2022).

Molecules are shown by their SMILES.

For the assay, the system named is primary adult rat cardiomyocytes. The assay is described as follows: Immunoblot of p21 in primary adult rat cardiomyocytes. In kind it is cell-based. The following applies: FIG. 1g. The procedure: Male Spargue Dawley rats (9 weeks, 300-350 g) were anesthetised with ketamine and xylazine (100 and 10 mg/kg, respectively) with heparin added (100 UI/kg). Hearts were excised and retrogradely perfused with an oxygenated ([…]) perfusion buffer consisting of NaCl 113 mM, KCl 4.7 mM, KH2PO4 0.6 mM, Na2HPO4 0.6 mM, MgSO4-7H2O 1.2 mM, NaHCO3 12 mM, KHCO3 10 mM, HEPES 10 mM, Taurine 30 mM, phenol red 0.032 mM, D-glucose 5.5 mM, 2,3-butanedionemonoxime 10 mM, pH 7.4) for 2 minutes to wash out the blood from the coronary arteries. Then hearts were perfused with a digestion buffer (perfusion buffer supplemented with 0.1 mg/mL liberase, 0.14 mg/mL trypsine-EDTA and 12.5 μM Ca^2+) for 10-12 minutes. Hearts were then placed in a stopping buffer (perfusion buffer supplemented with 10% NBCS and 12.5 μM Ca^2+). Atria and right ventricles were removed. Left ventricles were dissected into small fragments, then subjected to successive aspirations-reflux. Digested ventricles were filtered through a 250 μm cell strainer. […]
Cells were washed briefly with ice-cold 1×PBS, scraped in 400 μL T-PER lysis buffer (ThermoFisher) supplemented with 0.1 mM phenylmethylsulphonyl fluoride (PMSF) and protease/phosphatase inhibitor cocktail tablet (ThermoFisher). […] Protein concentrations were determined with Bradford assay (Biorad) and lysates were diluted to equal concentration with lysis buffer. […]

Regarding `N[C@@H](Cc1ccccc1)C(=O)O` [PA, (S)-2-Amino-3-phenylpropanoic acid], for the setting “PA 5 mM, 4-hour incubation”, the p21 protein entry is “selective induction”.

For the compound `CC(O)C(O)C1CNc2nc(N)[nH]c(=O)c2N1` (centres unmarked) [BH4, 2-amino-6-(1,2-dihydroxypropyl)-5,6,7,8-tetrahydro-3H-pteridin-4-one], the “PA-induced p21 protein” value (PA 5 mM + BH4 10 μM) was “rescue”.
